Reference: ChEMBL document CHEMBL4842340, “Development of Cagrilintide, a Long-Acting Amylin Analogue” (J Med Chem, 2021)
Converted amounts (≈) assume the structure as drawn. *1 amine or outer side, *2 acyl side, *3 side chain or, on linkers, in order; H or OH if unused. Where a SMILES comes first, the peptide text is derived from it. Bridges are numbered along the chain shown (N, C = ends). The star is where a group is joined. C20 diacid = O=C(O)CCCCCCCCCCCCCCCCCCC(=O)*; γGlu = O=C(O)[C@H](CCC(=O)[*:2])N[*:1]

Experiments:
[1] = Agonist activity at human calcitonin receptor expressed in BHK570 cells assessed as increase in intracellular cAMP concentration incubated for 3 hrs in absence of albumin by CRE luciferase reporter gene assay; format: cell-based; conditions: BHK570, 3 h
[2] = Solubility of the compound in lactate at pH 3 by UPLC analysis; format: physicochemical; conditions: lactate buffer
[3] = Solubility of the compound in lactate at pH 4 by UPLC analysis; format: physicochemical; conditions: lactate buffer
Rattus norvegicus [4] = assay: Reduction in food intake in Sprague-Dawley rat at 30 nmol/kg, sc administered as single dose measured after 24 to 48 hrs relative to control; format: functional; design: scale not given: the % may be the effect or the level left; conditions: time 24-48 hrs
[5] = Solubility of the compound in bis-tris propane at pH 7 by UPLC analysis; format: physicochemical; conditions: bis-tris propane buffer
[6] = Agonist activity at human AMY3R (CT+RAMP3) expressed in Hollex1 cells incubated for 3 hrs by luminescence assay; format: cell-based; conditions: Hollex1, 3 h
[7] = Displacement of [125I]-amylin from rat AMY3R (CTR+RAMP3) expressed in BHK-13 cells measured after 120 mins by scintillation proximity assay; format: cell-based
Homo sapiens [8] = species on record: Homo sapiens; assay: Ratio of IC50 for displacement of [125I]-calcitonin from human calcitonin receptor expressed in tk-ts 13 cells to IC50 for displacement of [125I]-amylin from human AMY3R (CTR+RAMP3) expressed in BHK-13 cells; format: cell-based
[9] = Displacement of [125I]-calcitonin from rat calcitonin receptor expressed in tk-ts 13 cells measured after 120 mins by scintillation proximity assay; format: cell-based; conditions: tk-ts13
[10] = Displacement of [125I]-amylin from human AMY3R (CTR+RAMP3) expressed in BHK-13 cells measured after 120 mins by scintillation proximity assay; format: cell-based
Homo sapiens [11] = species on record: Homo sapiens; assay: Ratio of EC50 for human calcitonin receptor expressed in BHK570 cells to EC50 for human AMY3R (CT+RAMP3) expressed in Hollex1 cells; format: cell-based
[12] = Solubility of the compound in bis-tris propane at pH 7.5 by UPLC analysis; format: physicochemical; conditions: bis-tris propane buffer
[13] = Agonist activity at rat calcitonin receptor expressed in BHK-13 cells assessed as increase in intracellular cAMP concentration incubated for 25 mins by CRE luciferase reporter gene assay; format: cell-based; conditions: BHK-13, 25 min
[14] = Agonist activity at rat AMY3R (CT+RAMP3) expressed in tk-ts13 cells assessed as increase in intracellular cAMP level incuabted for 25 mins by CRE luciferase reporter gene assay; format: cell-based; conditions: tk-ts13, 25 min
Rattus norvegicus [15] = species on record: Rattus norvegicus; assay: Ratio of IC50 for displacement of [125I]-calcitonin from rat calcitonin receptor expressed in tk-ts 13 cells to IC50 for displacement of [125I]-amylin from rat AMY3R (CTR+RAMP3) expressed in BHK-13 cells; format: cell-based
Rattus norvegicus [16] = assay: Reduction in food intake in Sprague-Dawley rat at 3 nmol/kg, sc administered as single dose measured upto 24 hrs relative to control; format: functional; design: scale not given: the % may be the effect or the level left; conditions: time hrs <=24
Insulin (Homo sapiens) [17] = molecular target: Insulin (Homo sapiens) (UniProt P01308); assay: Effect on insulin (unknown origin) amyloid fibril formation assessed as lag time in HEPES buffer at pH 7.5 measured after 45 hrs by thioflavin-T fluorescence assay
Insulin (Homo sapiens) [18] = molecular target: Insulin (Homo sapiens) (UniProt P01308); assay: Effect on insulin (unknown origin) amyloid fibril formation assessed as lag time in glycyl-glycine buffer at pH 4 measured after 45 hrs by thioflavin-T fluorescence assay
Rattus norvegicus [19] = species on record: Rattus norvegicus; assay: Ratio of EC50 for rat calcitonin receptor expressed in BHK-13 cells to EC50 for rat AMY3R (CT+RAMP3) expressed in tk-ts13 cells; format: cell-based
[20] = Solubility of the compound in lactate at pH 5 by UPLC analysis; format: physicochemical; conditions: lactate buffer
Rattus norvegicus [21] = assay: Reduction in food intake in Sprague-Dawley rat at 3 nmol/kg, sc administered as single dose measured after 24 to 48 hrs relative to control; format: functional; design: scale not given: the % may be the effect or the level left; conditions: time 24-48 hrs
Rattus norvegicus [22] = assay: Reduction in food intake in Sprague-Dawley rat at 30 nmol/kg, sc administered as single dose measured upto 24 hrs relative to control; format: functional; design: scale not given: the % may be the effect or the level left; conditions: time hrs <=24
[23] = Solubility of the compound in bis-tris propane at pH 6 by UPLC analysis; format: physicochemical; conditions: bis-tris propane buffer
[24] = Displacement of [125I]-calcitonin from human calcitonin receptor expressed in tk-ts 13 cells measured after 120 mins by scintillation proximity assay; format: cell-based; conditions: tk-ts13
Insulin (Homo sapiens) [25] = molecular target: Insulin (Homo sapiens) (UniProt P01308); assay: Effect on insulin (unknown origin) amyloid fibril formation assessed as peptide recovery in glycyl-glycine buffer at pH 4 measured after 45 hrs by thioflavin-T fluorescence assay relative to control; design: concentration or dose not given beside the values
Insulin (Homo sapiens) [26] = molecular target: Insulin (Homo sapiens) (UniProt P01308); assay: Effect on insulin (unknown origin) amyloid fibril formation assessed as peptide recovery in HEPES buffer at pH 7.5 measured after 45 hrs by thioflavin-T fluorescence assay relative to control
[27] = Solubility of the compound in bis-tris propane at pH 6.5 by UPLC analysis; format: physicochemical; conditions: bis-tris propane buffer
[28] = Solubility of the compound in bis-tris propane at pH 8 by UPLC analysis; format: physicochemical; conditions: bis-tris propane buffer

Insulin (Homo sapiens), sequence (P01308 whole entry): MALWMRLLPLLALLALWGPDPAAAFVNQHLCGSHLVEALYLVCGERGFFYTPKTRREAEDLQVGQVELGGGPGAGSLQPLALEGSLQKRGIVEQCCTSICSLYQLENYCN

EC50 [1]	solubility [2]	solubility [3]	solubility [5]	EC50 [6]	IC50 [7]	IC50 [9]	IC50 [10]	solubility [12]	EC50 [13]	EC50 [14]	TIME (Insulin (Homo sapiens) [17])	TIME (Insulin (Homo sapiens) [18])	solubility [20]	solubility [23]	Structure (SMILES)	Ratio IC50 (Homo sapiens [8])	Ratio EC50 (Homo sapiens [11])	Ratio IC50 (Rattus norvegicus [15])	Activity (Rattus norvegicus [16])	Activity (Rattus norvegicus [21])	further results
147 pM	200 µM (≈ 896 µg/mL)	200 µM (≈ 896 µg/mL)	103 µM (≈ 461 µg/mL)	145 pM	194 pM	666 pM	1070 pM	109 µM (≈ 488 µg/mL)	673 pM	246 pM	1 h	37 h	200 µM (≈ 896 µg/mL)	200 µM (≈ 896 µg/mL)	CC[C@H](C)[C@H](NC(=O)[C@@H]1CCCN1C(=O)CNC(=O)[C@H](Cc1ccccc1)NC(=O)[C@H](CC(N)=O)NC(=O)[C@H](CC(N)=O)NC(=O)[C@H](CO)NC(=O)[C@H](CO)NC(=O)[C@H](Cc1c[nH]cn1)NC(=O)[C@H](Cc1cnc[nH]1)NC(=O)[C@H](CC(C)C)NC(=O)[C@H](Cc1ccccc1)NC(=O)[C@H](CCC(=O)O)NC(=O)[C@H](C)NC(=O)[C@H](CC(C)C)NC(=O)[C@H](CCCNC(=N)N)NC(=O)[C@H](CCC(N)=O)NC(=O)[C@@H](NC(=O)[C@H](C)NC(=O)[C@@H]1CSSC[C@H](NC(=O)[C@H](CCCCN)NC(=O)CC[C@H](NC(=O)CCCCCCCCCCCCCCCCCCC(=O)O)C(=O)O)C(=O)N[C@@H](CC(N)=O)C(=O)N[C@@H]([C@@H](C)O)C(=O)N[C@@H](C)C(=O)N[C@@H]([C@@H](C)O)C(=O)N1)[C@@H](C)O)C(=O)N[C@@H](CC(C)C)C(=O)N1CCC[C@H]1C(=O)N1CCC[C@H]1C(=O)N[C@H](C(=O)N[C@@H](CC(N)=O)C(=O)N[C@H](C(=O)NCC(=O)N[C@@H](CO)C(=O)N[C@@H](Cc1cnc[nH]1)C(=O)N[C@H](C(=O)N[C@@H](Cc1ccc(O)cc1)C(N)=O)[C@@H](C)O)C(C)C)[C@@H](C)O ({C20 diacid-γGlu}-KCNTATCATQRLAEFLHHSSNNFGPILPPTNVGSHTY-NH2; disulfide 2-7)	1	1	3	58%	40%	Activity (Rattus norvegicus [4]): 90%; Ratio EC50 (Rattus norvegicus [19]): 3; Activity (Rattus norvegicus [22]): 88%; IC50 [24]: 1120 pM; Activity (Insulin (Homo sapiens) [25]): 91%; Activity (Insulin (Homo sapiens) [26]): 29%
52 pM	200 µM (≈ 878 µg/mL)	200 µM (≈ 878 µg/mL)	200 µM (≈ 878 µg/mL)	61 pM	27 pM	18 pM	186 pM	200 µM (≈ 878 µg/mL)	76 pM	158 pM	11 h	45 h	200 µM (≈ 878 µg/mL)	200 µM (≈ 878 µg/mL)	CC[C@H](C)[C@H](NC(=O)[C@@H]1CCCN1C(=O)CNC(=O)[C@H](Cc1ccccc1)NC(=O)[C@H](CC(N)=O)NC(=O)[C@H](CC(N)=O)NC(=O)[C@H](CO)NC(=O)[C@H](CO)NC(=O)[C@H](Cc1c[nH]cn1)NC(=O)[C@H](Cc1cnc[nH]1)NC(=O)[C@H](CC(C)C)NC(=O)[C@H](Cc1ccccc1)NC(=O)[C@H](CCC(=O)O)NC(=O)[C@H](C)NC(=O)[C@H](CC(C)C)NC(=O)[C@H](CCCNC(=N)N)NC(=O)[C@H](CCC(N)=O)NC(=O)[C@@H](NC(=O)[C@H](C)NC(=O)[C@@H]1CSSC[C@H](NC(=O)[C@H](CCCCN)NC(=O)CC[C@H](NC(=O)CCCCCCCCCCCCCCCCCCC(=O)O)C(=O)O)C(=O)N[C@@H](CC(N)=O)C(=O)N[C@@H]([C@@H](C)O)C(=O)N[C@@H](C)C(=O)N[C@@H]([C@@H](C)O)C(=O)N1)[C@@H](C)O)C(=O)N[C@@H](CC(C)C)C(=O)N1CCC[C@H]1C(=O)N1CCC[C@H]1C(=O)N[C@H](C(=O)N[C@@H](CC(N)=O)C(=O)N[C@H](C(=O)NCC(=O)N[C@@H](CO)C(=O)N[C@@H](CC(N)=O)C(=O)N[C@H](C(=O)N1CCC[C@H]1C(N)=O)[C@@H](C)O)C(C)C)[C@@H](C)O ({C20 diacid-γGlu}-KCNTATCATQRLAEFLHHSSNNFGPILPPTNVGSNTP-NH2; disulfide 2-7)	1	1	1	62%	74%	solubility [27]: 200 µM (≈ 878 µg/mL); solubility [28]: 200 µM (≈ 878 µg/mL); IC50 [24]: 115 pM; Activity (Insulin (Homo sapiens) [25]): 92%; Activity (Insulin (Homo sapiens) [26]): 19%
